ChEMBL document CHEMBL1154649, “Anti-HBV agents. Part 3: preliminary structure-activity relationships of tetra-acylalisol A derivatives as potent hepatitis B virus inhibitors” (Bioorg Med Chem Lett, 2009)

Columns and labels:
Hepatitis B virus [1] = assay: Antiviral activity against HBV assessed as inhibition of viral surface antigen secretion; format: functional, organism-based
[2] = Cytotoxicity against human HepG2(2.2.15) cells; format: cell-based
Hepatitis B virus [3] = assay: Antiviral activity against HBV assessed as inhibition of viral early antigen secretion; format: functional, organism-based
[4] = Selectivity index, ratio of CC50 for human HepG2(2.2.15) cells to IC50 for HBV surface antigen secretion; format: functional
[5] = Selectivity index, ratio of CC50 for human HepG2(2.2.15) cells to IC50 for HBV early antigen secretion; format: functional

| SMILES | IC50 (Hepatitis B virus [1]) [mM] | CC50 [2] [mM] | IC50 (Hepatitis B virus [3]) [mM] | Ratio CC50/IC50 [4] | Ratio CC50/IC50 [5] |
| --- | --- | --- | --- | --- | --- |
| C[C@H](C[C@H](OC(=O)[C@H]1CCC(=O)O1)[C@@H](OC(=O)[C@H]1CCC(=O)O1)C(C)(C)OC(=O)[C@@H]1CCC(=O)O1)C1=C2C[C@H](OC(=O)[C@@H]3CCC(=O)O3)[C@H]3[C@@]4(C)CCC(=O)C(C)(C)[C@@H]4CC[C@]3(C)[C@@]2(C)CC1 | > 1.6 | > 1.6 | > 1.6 | – | – |
| CCCCCCCC(=O)O[C@@H](C[C@@H](C)C1=C2C[C@H](OC(=O)CCCCCCC)[C@H]3[C@@]4(C)CCC(=O)C(C)(C)[C@@H]4CC[C@]3(C)[C@@]2(C)CC1)[C@@H](OC(=O)CCCCCCC)C(C)(C)OC(=O)CCCCCCC | > 1.6 | > 1.6 | > 1.6 | – | – |
| CCCC(=O)O[C@@H](C[C@@H](C)C1=C2C[C@H](OC(=O)CCC)[C@H]3[C@@]4(C)CCC(=O)C(C)(C)[C@@H]4CC[C@]3(C)[C@@]2(C)CC1)[C@@H](OC(=O)CCC)C(C)(C)OC(=O)CCC | > 1.8 | > 1.8 | 1.8 | – | – |
| CC(C)CC(=O)O[C@@H](C[C@@H](C)C1=C2C[C@H](OC(=O)CC(C)C)[C@H]3[C@@]4(C)CCC(=O)C(C)(C)[C@@H]4CC[C@]3(C)[C@@]2(C)CC1)[C@@H](OC(=O)CC(C)C)C(C)(C)OC(=O)CC(C)C | > 2 | > 2 | > 2 | – | – |
| C[C@H](C[C@H](OC(=O)c1ccccc1I)[C@@H](OC(=O)c1ccccc1I)C(C)(C)OC(=O)c1ccccc1I)C1=C2C[C@H](OC(=O)c3ccccc3I)[C@H]3[C@@]4(C)CCC(=O)C(C)(C)[C@@H]4CC[C@]3(C)[C@@]2(C)CC1 | > 1.4 | > 1.4 | > 1.4 | – | – |
| CCC(=O)O[C@@H](C[C@@H](C)C1=C2C[C@H](OC(=O)CC)[C@H]3[C@@]4(C)CCC(=O)C(C)(C)[C@@H]4CC[C@]3(C)[C@@]2(C)CC1)[C@@H](OC(=O)CC)C(C)(C)OC(=O)CC | 0.9 | > 1.9 | > 1.9 | >2.1 | – |
| C[C@H](C[C@H](OC(=O)c1cccc([N+](=O)[O-])c1)[C@@H](OC(=O)c1cccc([N+](=O)[O-])c1)C(C)(C)OC(=O)c1cccc([N+](=O)[O-])c1)C1=C2C[C@H](OC(=O)c3cccc([N+](=O)[O-])c3)[C@H]3[C@@]4(C)CCC(=O)C(C)(C)[C@@H]4CC[C@]3(C)[C@@]2(C)CC1 | > 1.1 | > 1.1 | > 1.1 | – | – |
| C[C@H](C[C@H](OC(=O)/C=C/c1ccccc1)[C@@H](OC(=O)/C=C/c1ccccc1)C(C)(C)OC(=O)/C=C/c1ccccc1)C1=C2C[C@H](OC(=O)/C=C/c3ccccc3)[C@H]3[C@@]4(C)CCC(=O)C(C)(C)[C@@H]4CC[C@]3(C)[C@@]2(C)CC1 | > 1.2 | > 1.2 | > 1.2 | – | – |
| C[C@H](C[C@H](OC(=O)COc1ccccc1)[C@@H](OC(=O)COc1ccccc1)C(C)(C)OC(=O)COc1ccccc1)C1=C2C[C@H](OC(=O)COc3ccccc3)[C@H]3[C@@]4(C)CCC(=O)C(C)(C)[C@@H]4CC[C@]3(C)[C@@]2(C)CC1 | > 1.4 | > 1.4 | > 1.4 | – | – |
| C[C@H](C[C@H](OC(=O)/C=C/c1ccccc1Cl)[C@@H](OC(=O)/C=C/c1ccccc1Cl)C(C)(C)OC(=O)/C=C/c1ccccc1Cl)C1=C2C[C@H](OC(=O)/C=C/c3ccccc3Cl)[C@H]3[C@@]4(C)CCC(=O)C(C)(C)[C@@H]4CC[C@]3(C)[C@@]2(C)CC1 | > 1.4 | > 1.4 | > 1.4 | – | – |
| CC(=O)OC(C)(C)[C@H](OC(=O)C(C)C)[C@H](C[C@@H](C)C1=C2C[C@H](OC(=O)C(C)C)[C@H]3[C@@]4(C)CCC(=O)C(C)(C)[C@@H]4CC[C@]3(C)[C@@]2(C)CC1)OC(=O)C(C)C | > 1.9 | > 1.9 | 1.5 | – | >1.3 |
| C[C@H](C[C@H](OC(=O)CN1C(=O)c2ccccc2C1=O)[C@@H](OC(=O)CN1C(=O)c2ccccc2C1=O)C(C)(C)OC(=O)CN1C(=O)c2ccccc2C1=O)C1=C2C[C@H](OC(=O)CN3C(=O)c4ccccc4C3=O)[C@H]3[C@@]4(C)CCC(=O)C(C)(C)[C@@H]4CC[C@]3(C)[C@@]2(C)CC1 | > 1.3 | > 1.3 | > 1.3 | – | – |
| CCCC(=O)O[C@@H](C[C@@H](C)[C@]12CC[C@@]3(C)[C@@]1(C[C@H](OC(=O)CCC)[C@H]1[C@@]4(C)CCC(=O)C(C)(C)[C@@H]4CC[C@@]13C)O2)[C@@H](OC(=O)CCC)C(C)(C)OC(=O)CCC | > 1.9 | > 1.9 | > 1.9 | – | – |
| C[C@H](C[C@H](OC(=O)c1ccc(Cl)cc1)[C@@H](OC(=O)c1ccc(Cl)cc1)C(C)(C)OC(=O)c1ccc(Cl)cc1)C1=C2C[C@H](OC(=O)c3ccc(Cl)cc3)[C@H]3[C@@]4(C)CCC(=O)C(C)(C)[C@@H]4CC[C@]3(C)[C@@]2(C)CC1 | 0.48 | > 1.4 | > 1.4 | >2.9 | – |
| CCCCC(=O)O[C@@H](C[C@@H](C)C1=C2C[C@H](OC(=O)CCCC)[C@H]3[C@@]4(C)CCC(=O)C(C)(C)[C@@H]4CC[C@]3(C)[C@@]2(C)CC1)[C@@H](OC(=O)CCCC)C(C)(C)OC(=O)CCCC | > 1.4 | > 1.4 | > 1.4 | – | – |
| C[C@H](C[C@H](OC(=O)CCC1CCCCC1)[C@@H](OC(=O)CCC1CCCCC1)C(C)(C)OC(=O)CCC1CCCCC1)C1=C2C[C@H](OC(=O)CCC3CCCCC3)[C@H]3[C@@]4(C)CCC(=O)C(C)(C)[C@@H]4CC[C@]3(C)[C@@]2(C)CC1 | > 1.7 | > 1.7 | > 1.7 | – | – |
| C[C@H](C[C@H](OC(=O)C1CC1)[C@@H](OC(=O)C1CC1)C(C)(C)OC(=O)C1CC1)C1=C2C[C@H](OC(=O)C3CC3)[C@H]3[C@@]4(C)CCC(=O)C(C)(C)[C@@H]4CC[C@]3(C)[C@@]2(C)CC1 | > 2.1 | > 2.1 | > 2.1 | – | – |
| C[C@H](C[C@H](OC(=O)c1ccccc1)[C@@H](OC(=O)c1ccccc1)C(C)(C)OC(=O)c1ccccc1)C1=C2C[C@H](OC(=O)c3ccccc3)[C@H]3[C@@]4(C)CCC(=O)C(C)(C)[C@@H]4CC[C@]3(C)[C@@]2(C)CC1 | > 1.4 | > 1.4 | > 1.4 | – | – |
| C[C@H](C[C@H](OC(=O)c1ccc(Cl)cc1Cl)[C@@H](OC(=O)c1ccc(Cl)cc1Cl)C(C)(C)OC(=O)c1ccc(Cl)cc1Cl)C1=C2C[C@H](OC(=O)c3ccc(Cl)cc3Cl)[C@H]3[C@@]4(C)CCC(=O)C(C)(C)[C@@H]4CC[C@]3(C)[C@@]2(C)CC1 | > 1 | > 1 | > 1 | – | – |
| C[C@H](C[C@H](OC(=O)COc1cc(Cl)c(Cl)cc1Cl)[C@@H](OC(=O)COc1cc(Cl)c(Cl)cc1Cl)C(C)(C)OC(=O)COc1cc(Cl)c(Cl)cc1Cl)C1=C2C[C@H](OC(=O)COc3cc(Cl)c(Cl)cc3Cl)[C@H]3[C@@]4(C)CCC(=O)C(C)(C)[C@@H]4CC[C@]3(C)[C@@]2(C)CC1 | > 1.2 | > 1.2 | > 1.2 | – | – |
| C[C@H](C[C@H](O[Si](C)(C)C)[C@@H](O[Si](C)(C)C)C(C)(C)O[Si](C)(C)C)C1=C2C[C@H](O[Si](C)(C)C)[C@H]3[C@@]4(C)CCC(=O)C(C)(C)[C@@H]4CC[C@]3(C)[C@@]2(C)CC1 | 0.02 | 0.051 | > 0.051 | 2.5 | <1 |
| COCC(=O)OC(C)(C)[C@H](OC(C)=O)[C@H](C[C@@H](C)C1=C2C[C@H](OC(C)=O)[C@H]3[C@@]4(C)CCC(=O)C(C)(C)[C@@H]4CC[C@]3(C)[C@@]2(C)CC1)OC(C)=O | 0.0044 | 0.92 | 0.012 | 209 | 77 |
| CCOCC(=O)OC(C)(C)[C@H](OC(C)=O)[C@H](C[C@@H](C)C1=C2C[C@H](OC(C)=O)[C@H]3[C@@]4(C)CCC(=O)C(C)(C)[C@@H]4CC[C@]3(C)[C@@]2(C)CC1)OC(C)=O | 0.014 | > 2.8 | 0.018 | >200 | >156 |
| CCC(=O)O[C@@H](C[C@@H](C)C1=C2C[C@H](OC(=O)CC)[C@H]3[C@@]4(C)CCC(=O)C(C)(C)[C@@H]4CC[C@]3(C)[C@@]2(C)CC1)[C@@H](OC(=O)CC)C(C)(C)OC(C)=O | 0.46 | > 1.7 | 0.086 | >3.7 | >20 |
| CC(=O)OC(C)(C)[C@H](OC(=O)c1ccccc1)[C@H](C[C@@H](C)C1=C2C[C@H](OC(=O)c3ccccc3)[C@H]3[C@@]4(C)CCC(=O)C(C)(C)[C@@H]4CC[C@]3(C)[C@@]2(C)CC1)OC(=O)c1ccccc1 | > 1.7 | > 1.7 | > 1.7 | – | – |
| CC(=O)O[C@@H](C[C@@H](C)[C@]12CC[C@@]3(C)[C@@]1(C[C@H](OC(C)=O)[C@H]1[C@@]4(C)CCC(=O)C(C)(C)[C@@H]4CC[C@@]13C)O2)[C@@H](OC(C)=O)C(C)(C)OC(C)=O | 0.046 | > 4 | 0.061 | >87 | >66 |
| CCC(=O)O[C@@H](C[C@@H](C)[C@]12CC[C@@]3(C)[C@@]1(C[C@H](OC(=O)CC)[C@H]1[C@@]4(C)CCC(=O)C(C)(C)[C@@H]4CC[C@@]13C)O2)[C@@H](OC(=O)CC)C(C)(C)OC(=O)CC | > 2.2 | > 2.2 | 1.3 | – | >1.7 |
| C[C@H](C[C@H](OC(=O)c1ccccc1)[C@@H](OC(=O)c1ccccc1)C(C)(C)OC(=O)c1ccccc1)[C@]12CC[C@@]3(C)[C@@]1(C[C@H](OC(=O)c1ccccc1)[C@H]1[C@@]4(C)CCC(=O)C(C)(C)[C@@H]4CC[C@@]13C)O2 | > 1.7 | > 1.7 | 1.1 | – | >1.5 |
| CC(=O)OC1=CC[C@@]2(C)[C@@H](CC[C@@]3(C)[C@H]2[C@@H](OC(C)=O)CC2=C([C@H](C)C[C@H](OC(C)=O)[C@@H](OC(C)=O)C(C)(C)OC(C)=O)CC[C@@]23C)C1(C)C | > 2.1 | > 2.1 | 0.28 | – | >7.5 |
